# US10550190B2 (Merck Sharp & Dohme Corp., priority 2014, dated 2020)
# Read-outs that look alike come from different tables or passages of the source.
# Columns and labels:
# [1] = In vitro stability, human whole blood incubation
# Description: Human blood was collected the morning of the experiment from at least 3 individuals using K2EDTA as the anticoagulant. An equal volume from each individual was combined for use in the experiment. The experiment started no more than 2 hours after the blood collection. All drug-linker conjugates were solubilized in DMSO to form each 10 mM stock solution. Dosing solution for each linker was prepared by serial dilution of each stock solution using 1:3 acetonitrile:water. All solutions were kept on ice during the experiment.
# Human blood was pre-warmed in a 37° C. water bath in an appropriate volume to collect samples over a time course from 0 through 6 hours. Incubating blood was mixed well just prior to sampling to give a homogenous mixture. Aliquots of blood were removed at appropriate time points, added to cold stopping solution, which was methanol containing an appropriate internal standard, and mixed rigorously. The samples were centrifuged at 4000 RPM for 10 minutes after which equal volumes of the supernatant fractions were diluted with cold deionized water. The samples were then ready for analysis.
# (§1) A Thermo LX-2 ultra-performance liquid chromatography system coupled with a Sciex API5000 triple quadrupole mass spectrometer was used for the analysis. The payload and drug-linkers were retained and separated by a C18 column and detected by the mass spectrometer. […] Samples were kept in cold stack set at 5° C.
# [2] = In vitro stability, rat liver lysosome incubation
# Description: All linker compounds were solubilized in DMSO to form each 10 mM stock solution. Dosing solution for each linker was prepared by serial dilution of each stock solution using 1:3 acetonitrile:water. All solutions were kept on ice during the experiment.
# Rat lysosomes were pre-warmed in a 37° C. water bath in an appropriate volume to collect samples over a time course from 0 minutes through 6 hours. Incubating lysosomes were mixed well just prior to sampling to give a homogenous mixture. Aliquots of lysosomes were removed at appropriate time points, added to cold stopping solution, which was methanol containing an appropriate internal standard, and mixed rigorously. The samples were centrifuged at 4000 RPM for 10 minutes after which equal volumes of supernatant were diluted with cold deionized water. The samples were ready for analysis.
# as §1
# [3] = Solubility of drug-linkers in 20% MeCN/H2O; conditions: aqueous with cosolvent or surfactant or cyclodextrin
# physchem = conditions: aqueous with cosolvent or surfactant or cyclodextrin
# [4] = not given; remark: listed apart in the source
# [5] = Matrix spiking (time 0 sample, lysosomes pretreated with stopping reagent)
smiles,measurement,setting,value
"C[C@@H]1C[C@H]2[C@@H]3CCC4=CC(=O)C=C[C@]4(C)[C@@]3(F)[C@@H](O)C[C@]2(C)[C@@]1(O)C(=O)CO [Dexamethasone, dexamethasone, reference compound]",Calculated Conc. for each compound in human whole blood,"[1]; 37° C., 0 m",1687 nM
same,Calculated Conc. for each compound in human whole blood,"[1]; 37° C., 20 m",2409 nM
same,Calculated Conc. for each compound in human whole blood,"[1]; 37° C., 1 hr",2224 nM
same,Calculated Conc. for each compound in human whole blood,"[1]; 37° C., 3 hr",1502 nM
same,Calculated Conc. for each compound in human whole blood,"[1]; 37° C., 6 hr",2792 nM
same,Calculated Conc. for each compound in human whole blood,"[1]; Matrix spiking (time 0 sample, blood pretreated with stopping reagent)",2939 nM
same,Calculated Conc. for each compound in rat lysosomal lysate,"[2]; 37° C., 0 m",1456.4 nM
same,Calculated Conc. for each compound in rat lysosomal lysate,"[2]; 37° C., 5 m",1851.2 nM
same,Calculated Conc. for each compound in rat lysosomal lysate,"[2]; 37° C., 10 m",1640.8 nM
same,Calculated Conc. for each compound in rat lysosomal lysate,"[2]; 37° C., 15 m",1666.7 nM
same,Calculated Conc. for each compound in rat lysosomal lysate,"[2]; 37° C., 30 m",1602.6 nM
same,Calculated Conc. for each compound in rat lysosomal lysate,"[2]; 37° C., 1 hr",1576.8 nM
same,Calculated Conc. for each compound in rat lysosomal lysate,"[2]; 37° C., 2 hr",1681.0 nM
same,Calculated Conc. for each compound in rat lysosomal lysate,"[2]; 37° C., 3 hr",1689.7 nM
same,Calculated Conc. for each compound in rat lysosomal lysate,"[2]; 37° C., 6 hr",1689.8 nM
same,Calculated Conc. for each compound in rat lysosomal lysate,[2]; [5],2059.0 nM
"C[C@@H]1C[C@H]2[C@@H]3CCC4=CC(=O)C=C[C@]4(C)[C@@]3(F)[C@@H](O)C[C@]2(C)[C@@]1(O)C(=O)COP(=O)(O)Oc1ccc(NC(=O)COC2C#CCCCCC2)cc1 (stereo partly drawn) [Compound 5-3, 4-(2-(cyclooct-2-yn-1-yloxy)acetamido)phenyl (2-((8S,9R,10S,11S,13S,14S,16R,17R)-9-fluoro-11,17-dihydroxy-10,13,16-trimethyl-3-oxo-6,7,8,9,10,11,12,13,14,15,16,17-dodecahydro-3H-cyclopenta[a]phenanthren-17-yl)-2-oxoethyl) hydrogen phosphate]",Calculated Conc. for each compound in human whole blood,"[1]; 37° C., 0 m",1299 nM
same,Calculated Conc. for each compound in human whole blood,"[1]; 37° C., 5 m",1251 nM
same,Calculated Conc. for each compound in human whole blood,"[1]; 37° C., 15 m",1276 nM
same,Calculated Conc. for each compound in human whole blood,"[1]; 37° C., 30 m",1111 nM
same,Calculated Conc. for each compound in human whole blood,"[1]; 37° C., 1 hr",937 nM
same,Calculated Conc. for each compound in human whole blood,"[1]; 37° C., 2 hr",1480 nM
same,solubility,[3],> 10000 µg/mL
same,Calculated Conc. for each compound in rat lysosomal lysate,"[2]; 37° C., 0 m",1394.08 nM
same,Calculated Conc. for each compound in rat lysosomal lysate,"[2]; 37° C., 5 m",1295.86 nM
same,Calculated Conc. for each compound in rat lysosomal lysate,"[2]; 37° C., 10 m",1278.4 nM
same,Calculated Conc. for each compound in rat lysosomal lysate,"[2]; 37° C., 15 m",1407.73 nM
same,Calculated Conc. for each compound in rat lysosomal lysate,"[2]; 37° C., 30 m",1175.39 nM
same,Calculated Conc. for each compound in rat lysosomal lysate,"[2]; 37° C., 1 hr",970.65 nM
same,Calculated Conc. for each compound in rat lysosomal lysate,"[2]; 37° C., 2 hr",743.45 nM
same,Calculated Conc. for each compound in rat lysosomal lysate,"[2]; 37° C., 3 hr",500.41 nM
same,Calculated Conc. for each compound in rat lysosomal lysate,"[2]; 37° C., 6 hr",221.03 nM
same,Calculated Conc. for each compound in rat lysosomal lysate,[2]; [5],2555.29 nM
C[C@@H]1C[C@H]2[C@@H]3CCC4=CC(=O)C=C[C@]4(C)[C@@]3(F)[C@@H](O)C[C@]2(C)[C@@]1(O)C(=O)COP(=O)(O)OP(=O)(O)Oc1ccc(NC(=O)COC2C#CCCCCC2)cc1 (stereo partly shown) [Compound 3-4],Calculated Conc. for each compound in human whole blood,"[1]; 37° C., 0 m",1382 nM
same,Calculated Conc. for each compound in human whole blood,"[1]; 37° C., 5 m",1325 nM
same,Calculated Conc. for each compound in human whole blood,"[1]; 37° C., 15 m",1398 nM
same,Calculated Conc. for each compound in human whole blood,"[1]; 37° C., 30 m",1250 nM
same,Calculated Conc. for each compound in human whole blood,"[1]; 37° C., 1 hr",1141 nM
same,Calculated Conc. for each compound in human whole blood,"[1]; 37° C., 2 hr",1703 nM
same,solubility,[3],> 10000 µg/mL
same,Calculated Conc. for each compound in rat lysosomal lysate,"[2]; 37° C., 0 m",1252 nM
same,Calculated Conc. for each compound in rat lysosomal lysate,"[2]; 37° C., 5 m",501.28 nM
same,Calculated Conc. for each compound in rat lysosomal lysate,"[2]; 37° C., 10 m",149.18 nM
same,Calculated Conc. for each compound in rat lysosomal lysate,[2]; [5],3128.83 nM
same,detectability of drug-linker in rat lysosomal extract (in words),[2]; after 10 minutes incubation,no longer detectable
"C[C@@H]1C[C@H]2[C@@H]3CCC4=CC(=O)C=C[C@]4(C)[C@@]3(F)[C@@H](O)C[C@]2(C)[C@@]1(O)C(=O)COP(=O)(O)OCCNC(=O)COC1C#CCCCCC1 (stereo partly drawn) [Compound 4-3, 2-(2-(cyclooct-2-yn-1-yloxy)acetamido)ethyl (2-((8S,9R,10S,11S,13S,14S,16R,17R)-9-fluoro-11,17-dihydroxy-10,13,16-trimethyl-3-oxo-6,7,8,9,10,11,12,13,14,15,16,17-dodecahydro-3H-cyclopenta[a]phenanthren-17-yl)-2-oxoethyl) hydrogen phosphate]",solubility,physchem,> 10000 µg/mL
same,Calculated Conc. for dexamethasone in rat lysosomal lysate,0 min,0.9 nM
same,Calculated Conc. for each compound in rat lysosomal lysate,0 min,888.8 nM
same,Calculated Conc. for dexamethasone in rat lysosomal lysate,5 min,14.5 nM
same,Calculated Conc. for each compound in rat lysosomal lysate,5 min,1156.1 nM
same,Calculated Conc. for dexamethasone in rat lysosomal lysate,10 min,14.2 nM
same,Calculated Conc. for each compound in rat lysosomal lysate,10 min,983.4 nM
same,Calculated Conc. for dexamethasone in rat lysosomal lysate,15 min,22.3 nM
same,Calculated Conc. for each compound in rat lysosomal lysate,15 min,1032.6 nM
same,Calculated Conc. for dexamethasone in rat lysosomal lysate,30 min,28.9 nM
same,Calculated Conc. for each compound in rat lysosomal lysate,30 min,980.1 nM
same,Calculated Conc. for dexamethasone in rat lysosomal lysate,1 h,41.6 nM
same,Calculated Conc. for each compound in rat lysosomal lysate,1 h,882.4 nM
same,Calculated Conc. for dexamethasone in rat lysosomal lysate,2 h,72.5 nM
same,Calculated Conc. for each compound in rat lysosomal lysate,2 h,880.1 nM
same,Calculated Conc. for dexamethasone in rat lysosomal lysate,3 h,90.2 nM
same,Calculated Conc. for each compound in rat lysosomal lysate,3 h,903.8 nM
same,Calculated Conc. for dexamethasone in rat lysosomal lysate,6 h,141.9 nM
same,Calculated Conc. for each compound in rat lysosomal lysate,6 h,858.9 nM
same,Calculated Conc. for each compound in human whole blood,[4]; 0 min,1539 nM
same,Calculated Conc. for dexamethasone in human whole blood,[4]; 20 min,0 nM
same,Calculated Conc. for each compound in human whole blood,[4]; 20 min,1861 nM
same,Calculated Conc. for dexamethasone in human whole blood,[4]; 1 h,0 nM
same,Calculated Conc. for each compound in human whole blood,[4]; 1 h,1619 nM
same,Calculated Conc. for dexamethasone in human whole blood,[4]; 3 h,1 nM
same,Calculated Conc. for each compound in human whole blood,[4]; 3 h,1677 nM
same,Calculated Conc. for dexamethasone in human whole blood,[4]; 6 h,3 nM
same,Calculated Conc. for each compound in human whole blood,[4]; 6 h,2040 nM
